Where a name gives a salt, the structure may show the parent alone.
Experiments:
[1] = test system: Nrf2; assay: Nrf2 functional cell-based assay (DiscoveRx), luminescence; details: U2OS cells; for EC50: 6 hours incubation, read-out: Nrf2 activation EC50
[2] = biological target: CYP2C19 (Homo sapiens, UniProt P33261); assay: in vitro; details: human liver microsomes, pH 7.4, probe S-mephenytoin 100 μM (in five-substrate cocktail)
[3] = biological target: CYP2D6 (Homo sapiens, UniProt P10635); assay: in vitro; details: human liver microsomes, pH 7.4, probe Dextromethorphan 5 μM (in five-substrate cocktail)
[4] = biological target: CYP2C9 (Homo sapiens, UniProt P11712); assay: in vitro; details: human liver microsomes, pH 7.4, probe Diclofenac 10 μM (in five-substrate cocktail)
[5] = biological target: T1, CYP1A2 (Homo sapiens, UniProt P05177); assay: in vitro; details: human liver microsomes, pH 7.4, probe Phenacetin 50 μM (in five-substrate cocktail)
T1 sequence (P05177 1-516): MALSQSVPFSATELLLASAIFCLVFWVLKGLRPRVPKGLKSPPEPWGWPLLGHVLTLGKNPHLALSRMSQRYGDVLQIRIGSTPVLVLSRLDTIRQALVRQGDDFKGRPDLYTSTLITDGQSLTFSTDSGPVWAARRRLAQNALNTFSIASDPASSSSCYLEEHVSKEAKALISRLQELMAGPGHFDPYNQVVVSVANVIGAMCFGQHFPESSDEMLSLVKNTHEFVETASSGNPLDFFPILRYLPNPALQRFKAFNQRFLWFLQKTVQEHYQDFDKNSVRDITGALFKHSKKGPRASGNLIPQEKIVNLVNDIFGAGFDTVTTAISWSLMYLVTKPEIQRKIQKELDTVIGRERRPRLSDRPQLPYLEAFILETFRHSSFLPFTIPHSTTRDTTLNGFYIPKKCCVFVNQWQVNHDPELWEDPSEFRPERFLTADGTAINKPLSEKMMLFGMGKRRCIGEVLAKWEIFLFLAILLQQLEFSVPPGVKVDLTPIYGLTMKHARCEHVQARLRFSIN

[6] = biological target: CYP3A4 (Homo sapiens, UniProt P08684); assay: in vitro; details: human liver microsomes, pH 7.4, probe Midazolam […] (in five-substrate cocktail)
[7] = test system: BV-2 mouse microglial cells; assay: NO (nitric oxide) inhibitory activity in LPS-treated microglial cells; format: cell-based; details: LPS 1 μg/ml, 24 hours, read-out: Amount of NO (% of control)
[8] = Metabolic stability using liver microsomes; format: in vitro ADME, Human; details: for Human (% remaining): liver microsomes, 30 minutes at 37° C.; for drug remaining after incubation with microsomes: after 30 minutes
[9] = Metabolic stability using liver microsomes; format: in vitro ADME, Mouse; details: 30 minutes
[10] = Metabolic stability using liver microsomes; format: in vitro ADME, Rat; details: 30 minutes
Experimental: Therefore, in order to predict the extent of drug metabolism by the liver, the main organ for drug metabolism, through in vitro experiments, the metabolic stability of drugs was evaluated using liver microsomes.
Then, an NADPH regeneration system solution was added thereto and the mixed solution was incubated at 37° C. for 30 minutes.

[11] = known; cited from earlier work

Chain of CYP2C9 (P11712 whole entry): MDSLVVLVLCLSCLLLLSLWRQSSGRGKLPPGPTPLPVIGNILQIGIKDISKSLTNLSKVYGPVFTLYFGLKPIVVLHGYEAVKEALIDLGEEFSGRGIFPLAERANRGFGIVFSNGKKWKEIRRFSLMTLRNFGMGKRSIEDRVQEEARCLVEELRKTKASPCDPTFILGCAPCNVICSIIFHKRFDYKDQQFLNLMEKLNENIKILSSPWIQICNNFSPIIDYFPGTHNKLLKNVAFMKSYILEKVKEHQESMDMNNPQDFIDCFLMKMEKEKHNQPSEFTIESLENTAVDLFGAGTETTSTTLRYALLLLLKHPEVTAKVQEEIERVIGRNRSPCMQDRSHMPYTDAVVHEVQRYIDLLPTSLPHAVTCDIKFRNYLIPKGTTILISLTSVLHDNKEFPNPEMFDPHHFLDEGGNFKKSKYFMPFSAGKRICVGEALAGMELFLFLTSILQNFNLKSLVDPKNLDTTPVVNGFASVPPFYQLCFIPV
Chain of CYP2C19 (P33261 whole entry): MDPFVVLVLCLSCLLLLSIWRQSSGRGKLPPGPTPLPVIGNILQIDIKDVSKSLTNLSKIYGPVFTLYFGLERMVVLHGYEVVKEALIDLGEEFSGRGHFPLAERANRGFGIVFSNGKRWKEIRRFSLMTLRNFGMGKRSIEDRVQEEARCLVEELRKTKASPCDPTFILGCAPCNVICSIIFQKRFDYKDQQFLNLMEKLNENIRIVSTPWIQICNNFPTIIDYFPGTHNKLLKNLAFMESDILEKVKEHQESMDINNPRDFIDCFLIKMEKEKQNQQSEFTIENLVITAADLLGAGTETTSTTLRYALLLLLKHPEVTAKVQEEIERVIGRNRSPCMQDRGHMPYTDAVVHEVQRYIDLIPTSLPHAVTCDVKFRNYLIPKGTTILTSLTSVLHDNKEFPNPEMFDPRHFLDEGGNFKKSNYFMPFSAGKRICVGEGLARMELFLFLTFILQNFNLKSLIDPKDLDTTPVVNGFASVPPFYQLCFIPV
Chain of CYP3A4 (P08684 whole entry): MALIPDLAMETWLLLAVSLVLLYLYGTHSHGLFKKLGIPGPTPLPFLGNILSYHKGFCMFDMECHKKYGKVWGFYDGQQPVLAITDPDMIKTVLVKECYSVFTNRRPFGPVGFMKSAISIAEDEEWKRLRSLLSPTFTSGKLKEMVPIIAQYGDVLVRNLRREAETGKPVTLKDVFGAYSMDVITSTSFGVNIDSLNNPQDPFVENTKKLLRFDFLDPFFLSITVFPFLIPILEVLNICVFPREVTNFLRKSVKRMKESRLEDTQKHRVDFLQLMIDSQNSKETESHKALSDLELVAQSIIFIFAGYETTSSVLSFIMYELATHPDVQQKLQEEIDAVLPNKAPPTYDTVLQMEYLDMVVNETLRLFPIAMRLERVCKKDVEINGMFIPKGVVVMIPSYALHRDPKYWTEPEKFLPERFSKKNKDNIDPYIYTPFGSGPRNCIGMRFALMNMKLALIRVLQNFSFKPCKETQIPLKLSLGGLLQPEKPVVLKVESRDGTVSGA
Chain of CYP2D6 (P10635 whole entry): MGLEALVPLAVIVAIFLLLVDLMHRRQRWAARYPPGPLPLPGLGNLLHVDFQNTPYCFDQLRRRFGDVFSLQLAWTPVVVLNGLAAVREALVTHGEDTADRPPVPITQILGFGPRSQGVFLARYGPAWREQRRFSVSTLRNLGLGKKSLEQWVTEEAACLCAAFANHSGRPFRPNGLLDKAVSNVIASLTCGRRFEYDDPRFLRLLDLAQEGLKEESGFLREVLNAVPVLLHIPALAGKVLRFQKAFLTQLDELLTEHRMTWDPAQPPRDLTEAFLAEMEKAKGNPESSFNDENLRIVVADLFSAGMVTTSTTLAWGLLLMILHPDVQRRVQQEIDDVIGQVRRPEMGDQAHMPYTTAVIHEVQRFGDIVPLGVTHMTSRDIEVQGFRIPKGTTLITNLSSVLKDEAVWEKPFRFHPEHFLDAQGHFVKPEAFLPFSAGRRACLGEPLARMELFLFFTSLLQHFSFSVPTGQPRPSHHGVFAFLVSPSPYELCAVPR

Row | SMILES | activity at 15 min, 10 µM [2] [%] | activity at 15 min, 10 µM [3] [%] | activity at 15 min, 10 µM [4] [%] | activity at 15 min, 10 µM [5] [%] | activity at 15 min, 10 µM [6] [%] | activity at 10 µM [7] [%] | further results
1 | COc1ccccc1S(=O)(/C=C/c1ccccc1Cl)=NC#N (stereo not drawn) [Compound 1-57, (E)-N-((2-chlorostyryl)(2-methoxyphenyl)(oxo)-λ^6-sulfanylidene)cyanamide] | – | – | – | – | – | – | Nrf2 activation effect compared with Sulforaphane [1]: better Nrf2 activation effect than Sulforaphane
2 | O=S(=O)(/C=C/c1ncccc1Cl)c1ccccc1F [drawing 157, reference compound] | 16.6 | 86.1 | 45.5 | 95.8 | 105 | – | –
3 | COc1ccc(S(=N)(=O)/C=C/c2ncccc2Cl)cc1 (stereo not drawn) [Compound 1-10, (E)-(2-(3-chloropyridin-2-yl)vinyl)(imino)(4-methoxyphenyl)-λ^6-sulfanone] | 6 | 112 | 133 | 103 | 109 | < 3 | –
4 | N=S(=O)(/C=C/c1ncccc1F)c1ccc(OCCCN2CCOCC2)cn1 (stereo not drawn) [Compound 1-53, (E)-(2-(3-fluoropyridin-2-yl)vinyl)(imino)(5-(3-morpholinopropoxy)pyridin-2-yl)-λ^6-sulfanone] | – | – | – | – | – | – | EC50 [1]: 604 nM
5 | COc1ccccc1S(=N)(=O)/C=C/c1ncccc1Cl (stereo not drawn) [Compound 1-8, (E)-(2-(3-chloropyridin-2-yl)vinyl)(imino)(2-methoxyphenyl)-λ^6-sulfanone] | 24.4 | 93.9 | 192 | 84.4 | 78.4 | 14.2 | –
6 | O=S(=O)(/C=C/c1ccccn1)c1ccccc1F [reference compound] | 38.4 | 92.4 | 230 | 93 | 104 | – | –
7 | C[Si](C)(C)N=S(=O)(/C=C/c1ccccc1Cl)c1ccncc1F (stereo not drawn) [Compound 1-46, (E)-(2-chlorostyryl)(3-fluoropyridin-4-yl)((trimethylsilyl)imino)-λ^6-sulfanone] | – | – | – | – | – | – | Nrf2 activation effect compared with Sulforaphane [1]: better Nrf2 activation effect than Sulforaphane
8 | O=S(=O)(/C=C/c1ncccc1Cl)c1ccccc1F [drawing 173] | – | – | – | – | – | – | Human (% remaining) [8]: 72 % remaining; Mouse (% remaining) [9]: 19 % remaining; Rat (% remaining) [10]: 23 % remaining
9 | O=S(=O)(/C=C/c1cccnc1)c1ccccc1Cl [reference compound] | 33.4 | 101 | 118 | 84 | 74.2 | – | –
10 | N=S(=O)(/C=C/c1cccnc1Cl)c1ccccc1Cl (stereo not drawn) [Compound 1-13, (E)-(2-chlorophenyl)(2-(2-chloropyridin-3-yl)vinyl)(imino)-λ^6-sulfanone] | 27.8 | 95.7 | 169 | 93.3 | 59.8 | 9.26 | –
11 | N=S(=O)(/C=C/c1ccccn1)c1ccccc1F (stereo not drawn) [Compound 1-1, (E)-(2-Fluorophenyl)(imino)(2-(pyridin-2-yl)vinyl)-λ^6-sulfanone] | 66.9 | 82.7 | 85.7 | 87.8 | 121 | < 3 | activity at 0.1 µM [7]: 97%; activity at 1 µM [7]: 74.2%
12 | N=S(=O)(/C=C/c1cccc(Cl)c1)c1ccccn1 (stereo not drawn) [Compound 1-16, (E)-(3-chlorostyryl)(imino)(pyridin-2-yl)-λ^6-sulfanone] | – | – | – | – | – | < 3 | –
13 | N=S(=O)(/C=C/c1ncccc1Cl)c1ccccc1Cl (stereo not drawn) [Compound 1-4, (E)-(2-chlorophenyl)(2-(3-chloropyridin-2-yl)vinyl)(imino)-λ^6-sulfanone] | – | – | – | – | – | – | drug remaining after incubation with microsomes [8]: remained at a high concentration
14 | N=S(=O)(/C=C/c1cccnc1)c1ccccc1Cl (stereo not drawn) [Compound 1-12, (E)-(2-chlorophenyl)(imino)(2-(pyridin-3-yl)vinyl)-λ^6-sulfanone] | 68.2 | 94.4 | 87.1 | 86.8 | 104 | – | EC50 [1]: > 10000 nM
15 | COc1ccc(S(=O)(=O)/C=C/c2ncccc2Cl)cc1 [reference compound] | – | – | 196 | – | – | – | –
16 | O=S(=O)(/C=C/c1ncccc1Cl)c1ccccc1Cl [reference compound] | – | – | – | – | – | – | Human (% remaining) [8]: 66 % remaining; Mouse (% remaining) [9]: 4.5 % remaining
17 | N=S(=O)(/C=C/c1ccc(Cl)cc1)c1ccccn1 (stereo not drawn) [Compound 1-20, (E)-(4-chlorostyryl)(imino)(pyridin-2-yl)-λ^6-sulfanone] | – | – | – | – | – | 20.3 | –
18 | O=S(=O)(/C=C/c1cccnc1Cl)c1ccccc1Cl [reference compound] | 28.3 | 93.8 | 88.7 | 85.6 | 81.2 | – | –
19 | C[S+]([O-])CCCCN=C=S (stereo not drawn) [Sulforaphane, 1-isothiocyanato-4-methylsulfinylbutane] | – | – | – | – | – | – | concentration at which high toxicity is exhibited [11]: ≥ 5 M
20 | N=S(=O)(/C=C/c1ccccc1C(F)(F)F)c1ccccn1 (stereo not drawn) [Compound 1-17, (E)-imino(pyridin-2-yl)(2-(trifluoromethyl)styryl)-λ^6-sulfanone] | – | – | – | – | – | < 3 | –
21 | COc1ccccc1S(=O)(=O)/C=C/c1ncccc1Cl [reference compound] | – | – | 209 | – | – | – | –
22 | COC(=O)/C=C/C(=O)OC [DMF, Dimethyl fumarate, reference compound] | – | – | – | – | – | 16.3 | activity at 0.1 µM [7]: 113%; activity at 1 µM [7]: 60%
23 | N=S(=O)(/C=C/c1ncccc1F)c1ccccc1F (stereo not drawn) [Compound 1-5, (E)-(2-fluorophenyl)(2-(3-fluoropyridin-2-yl)vinyl)(imino)-λ^6-sulfanone] | – | – | – | – | – | 7.96 | activity at 0.1 µM [7]: 101%; activity at 1 µM [7]: 69.2%
24 | COc1ccc(S(=N)(=O)/C=C/c2ccccn2)cc1 (stereo not drawn) [Compound 1-2, (E)-Imino(4-methoxyphenyl)(2-(pyridin-2-yl)vinyl)-λ^6-sulfanone] | 70.4 | 98.6 | 96.6 | 88.9 | 97.5 | 35.8 | drug remaining after incubation with microsomes [8]: remained at a high concentration; activity at 0.1 µM [7]: 110%; activity at 1 µM [7]: 115%
25 | COc1ccccc1S(=O)(/C=C/c1ncccc1Cl)=NC#N (stereo not drawn) [Compound 1-58, (E)-N-((2-(3-chloropyridin-2-yl)vinyl)(2-methoxyphenyl)(oxo)-λ^6-sulfaneylidene)cyanamide] | – | – | – | – | – | – | EC50 [1]: 658 nM
26 | N=S(=O)(/C=C/c1ccccc1OC(F)(F)F)c1ccccn1 (stereo not drawn) [Compound 1-18, (E)-imino(pyridin-2-yl)(2-(trifluoromethoxy)styryl)-λ^6-sulfanone] | – | – | – | – | – | < 3 | –
